Source: ChEMBL document CHEMBL1145498, “A systematic interaction map of validated kinase inhibitors with Ser/Thr kinases” (Proc Natl Acad Sci U S A, 2007)

How the values were obtained:
[1] = biological target: 5'-AMP-activated protein kinase catalytic subunit alpha-2 (Homo sapiens) (UniProt P54646)
[2] = biological target: Calcium/calmodulin-dependent protein kinase type II subunit beta (Homo sapiens) (UniProt Q13554)
[3] = biological target: T1, Calcium/calmodulin-dependent protein kinase type IV (Homo sapiens) (UniProt Q16566)
T1 sequence (whole entry): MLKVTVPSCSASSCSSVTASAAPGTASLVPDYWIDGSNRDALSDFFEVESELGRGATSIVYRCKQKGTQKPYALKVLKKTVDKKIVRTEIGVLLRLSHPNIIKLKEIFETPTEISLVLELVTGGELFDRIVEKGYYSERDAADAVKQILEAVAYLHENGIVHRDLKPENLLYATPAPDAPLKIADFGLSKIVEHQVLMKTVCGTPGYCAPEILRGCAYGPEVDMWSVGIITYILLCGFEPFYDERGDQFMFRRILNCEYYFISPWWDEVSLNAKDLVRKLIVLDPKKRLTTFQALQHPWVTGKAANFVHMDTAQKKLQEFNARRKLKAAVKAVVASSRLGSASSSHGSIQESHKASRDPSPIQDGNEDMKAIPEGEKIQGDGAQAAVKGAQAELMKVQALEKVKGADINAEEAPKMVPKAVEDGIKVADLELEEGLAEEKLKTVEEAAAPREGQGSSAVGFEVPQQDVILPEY

[4] = biological target: Cyclin-dependent kinase 6 (Homo sapiens) (UniProt Q00534)
[5] = biological target: Cyclin-dependent kinase-like 1 (Homo sapiens) (UniProt Q00532)
[6] = biological target: Serine/threonine-protein kinase Chk2 (Homo sapiens, UniProt O96017)
[7] = biological target: Dual specificity protein kinase CLK1 (Homo sapiens) (UniProt P49759)
[8] = biological target: Dual specificity protein kinase CLK2 (Homo sapiens) (UniProt P49760)
[9] = biological target: Death-associated protein kinase 3 (Homo sapiens) (UniProt O43293)
[10] = biological target: T2, Myotonin-protein kinase (Homo sapiens) (UniProt Q09013)
T2 sequence (whole entry): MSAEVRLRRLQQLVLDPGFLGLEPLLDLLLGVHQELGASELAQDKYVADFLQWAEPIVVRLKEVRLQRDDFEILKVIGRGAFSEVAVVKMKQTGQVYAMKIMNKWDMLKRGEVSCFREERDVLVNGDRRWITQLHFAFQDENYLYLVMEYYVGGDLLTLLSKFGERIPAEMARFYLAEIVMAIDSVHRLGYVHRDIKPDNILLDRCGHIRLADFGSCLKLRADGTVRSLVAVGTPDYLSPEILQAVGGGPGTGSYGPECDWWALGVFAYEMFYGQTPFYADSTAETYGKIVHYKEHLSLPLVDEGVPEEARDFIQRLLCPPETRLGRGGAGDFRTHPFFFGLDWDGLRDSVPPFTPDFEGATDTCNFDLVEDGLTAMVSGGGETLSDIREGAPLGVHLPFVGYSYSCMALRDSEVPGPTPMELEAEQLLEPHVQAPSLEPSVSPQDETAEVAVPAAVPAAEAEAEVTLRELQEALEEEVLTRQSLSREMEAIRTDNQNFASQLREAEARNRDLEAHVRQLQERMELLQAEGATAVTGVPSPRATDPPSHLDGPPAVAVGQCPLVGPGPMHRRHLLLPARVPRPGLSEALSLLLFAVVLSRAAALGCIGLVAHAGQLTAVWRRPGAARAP

[11] = biological target: Tyrosine-protein kinase JAK1 (Homo sapiens) (UniProt P23458)
[12] = biological target: Mitogen-activated protein kinase 3 (Homo sapiens, UniProt P27361)
[13] = biological target: Serine/threonine-protein kinase PLK1 (Homo sapiens) (UniProt P53350)
[14] = biological target: cAMP-dependent protein kinase catalytic subunit alpha (Homo sapiens) (UniProt P17612)
[15] = biological target: Ribosomal protein S6 kinase alpha-3 (Homo sapiens) (UniProt P51812)
[16] = biological target: Serine/threonine-protein kinase 16 (Homo sapiens) (UniProt O75716)
[17] = biological target: Serine/threonine-protein kinase 26 (Homo sapiens) (UniProt Q9P289)
[18] = biological target: T3, Serine/threonine-protein kinase VRK1 (Homo sapiens) (UniProt Q99986)
T3 sequence (whole entry): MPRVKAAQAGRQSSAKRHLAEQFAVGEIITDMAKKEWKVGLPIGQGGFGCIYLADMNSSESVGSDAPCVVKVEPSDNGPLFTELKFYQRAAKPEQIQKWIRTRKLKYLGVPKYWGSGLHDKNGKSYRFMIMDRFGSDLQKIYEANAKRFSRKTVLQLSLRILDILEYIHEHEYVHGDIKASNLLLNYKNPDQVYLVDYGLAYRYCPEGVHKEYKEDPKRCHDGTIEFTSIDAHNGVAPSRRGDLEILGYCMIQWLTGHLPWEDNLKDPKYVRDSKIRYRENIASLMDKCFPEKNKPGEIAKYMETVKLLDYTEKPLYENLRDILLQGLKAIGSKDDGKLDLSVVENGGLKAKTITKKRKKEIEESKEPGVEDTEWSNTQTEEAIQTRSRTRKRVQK

Sequence of Tyrosine-protein kinase JAK1 (Homo sapiens) (P23458 whole entry): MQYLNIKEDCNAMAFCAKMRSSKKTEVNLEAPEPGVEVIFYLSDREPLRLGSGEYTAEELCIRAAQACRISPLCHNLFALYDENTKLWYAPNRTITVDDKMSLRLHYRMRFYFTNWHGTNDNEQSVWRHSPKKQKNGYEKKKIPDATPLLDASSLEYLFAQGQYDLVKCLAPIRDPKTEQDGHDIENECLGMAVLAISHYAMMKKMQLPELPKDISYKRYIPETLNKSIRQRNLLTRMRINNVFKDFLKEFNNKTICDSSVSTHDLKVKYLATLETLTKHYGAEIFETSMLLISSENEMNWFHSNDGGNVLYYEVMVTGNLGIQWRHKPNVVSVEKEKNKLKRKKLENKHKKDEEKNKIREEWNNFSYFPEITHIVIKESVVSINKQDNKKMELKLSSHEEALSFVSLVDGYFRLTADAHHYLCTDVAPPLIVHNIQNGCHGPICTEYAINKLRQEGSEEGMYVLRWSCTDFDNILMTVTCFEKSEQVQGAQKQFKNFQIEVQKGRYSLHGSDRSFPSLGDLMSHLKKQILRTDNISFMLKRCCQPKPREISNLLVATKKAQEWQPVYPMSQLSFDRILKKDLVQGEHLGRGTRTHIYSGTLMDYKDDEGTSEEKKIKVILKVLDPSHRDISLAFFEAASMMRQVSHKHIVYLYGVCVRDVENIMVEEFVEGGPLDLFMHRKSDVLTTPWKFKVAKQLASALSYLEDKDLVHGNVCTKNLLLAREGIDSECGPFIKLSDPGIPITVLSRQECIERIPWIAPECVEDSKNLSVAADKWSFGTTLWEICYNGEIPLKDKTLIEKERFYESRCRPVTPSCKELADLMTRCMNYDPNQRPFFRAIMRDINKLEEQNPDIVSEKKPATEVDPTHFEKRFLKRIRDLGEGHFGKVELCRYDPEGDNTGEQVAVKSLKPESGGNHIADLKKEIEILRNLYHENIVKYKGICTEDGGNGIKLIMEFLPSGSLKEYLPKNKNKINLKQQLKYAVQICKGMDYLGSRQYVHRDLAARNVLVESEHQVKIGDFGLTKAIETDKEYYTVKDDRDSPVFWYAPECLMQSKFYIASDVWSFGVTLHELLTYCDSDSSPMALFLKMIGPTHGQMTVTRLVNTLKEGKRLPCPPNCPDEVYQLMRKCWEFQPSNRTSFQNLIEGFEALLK
Sequence of Cyclin-dependent kinase 6 (Homo sapiens) (Q00534 whole entry): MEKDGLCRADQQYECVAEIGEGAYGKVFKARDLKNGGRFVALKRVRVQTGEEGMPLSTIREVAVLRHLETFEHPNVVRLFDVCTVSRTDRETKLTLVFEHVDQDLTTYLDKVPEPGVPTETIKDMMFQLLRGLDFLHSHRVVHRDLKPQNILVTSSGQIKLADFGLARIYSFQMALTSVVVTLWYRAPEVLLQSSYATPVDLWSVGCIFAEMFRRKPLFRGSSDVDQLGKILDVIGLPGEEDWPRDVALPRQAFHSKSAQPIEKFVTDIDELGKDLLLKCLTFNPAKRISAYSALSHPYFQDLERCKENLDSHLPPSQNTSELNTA
Sequence of Calcium/calmodulin-dependent protein kinase type II subunit beta (Homo sapiens) (Q13554 whole entry): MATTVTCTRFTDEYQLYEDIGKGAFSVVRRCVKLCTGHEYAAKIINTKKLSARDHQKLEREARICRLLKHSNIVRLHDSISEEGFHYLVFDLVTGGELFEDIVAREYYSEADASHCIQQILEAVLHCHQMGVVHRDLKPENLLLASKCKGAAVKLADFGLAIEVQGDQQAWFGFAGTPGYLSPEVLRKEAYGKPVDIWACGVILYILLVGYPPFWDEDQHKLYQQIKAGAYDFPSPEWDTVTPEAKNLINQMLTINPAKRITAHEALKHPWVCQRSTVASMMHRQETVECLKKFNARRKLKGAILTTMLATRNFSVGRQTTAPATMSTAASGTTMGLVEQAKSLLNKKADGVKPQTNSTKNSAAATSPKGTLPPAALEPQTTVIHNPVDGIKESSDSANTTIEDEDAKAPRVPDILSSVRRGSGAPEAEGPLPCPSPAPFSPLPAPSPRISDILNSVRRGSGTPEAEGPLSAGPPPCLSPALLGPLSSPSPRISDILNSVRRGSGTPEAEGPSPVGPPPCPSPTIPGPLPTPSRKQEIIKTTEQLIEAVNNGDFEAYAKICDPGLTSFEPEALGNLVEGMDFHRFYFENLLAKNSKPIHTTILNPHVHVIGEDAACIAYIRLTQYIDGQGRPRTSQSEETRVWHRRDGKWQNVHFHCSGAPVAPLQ
Sequence of Death-associated protein kinase 3 (Homo sapiens) (O43293 whole entry, looked up): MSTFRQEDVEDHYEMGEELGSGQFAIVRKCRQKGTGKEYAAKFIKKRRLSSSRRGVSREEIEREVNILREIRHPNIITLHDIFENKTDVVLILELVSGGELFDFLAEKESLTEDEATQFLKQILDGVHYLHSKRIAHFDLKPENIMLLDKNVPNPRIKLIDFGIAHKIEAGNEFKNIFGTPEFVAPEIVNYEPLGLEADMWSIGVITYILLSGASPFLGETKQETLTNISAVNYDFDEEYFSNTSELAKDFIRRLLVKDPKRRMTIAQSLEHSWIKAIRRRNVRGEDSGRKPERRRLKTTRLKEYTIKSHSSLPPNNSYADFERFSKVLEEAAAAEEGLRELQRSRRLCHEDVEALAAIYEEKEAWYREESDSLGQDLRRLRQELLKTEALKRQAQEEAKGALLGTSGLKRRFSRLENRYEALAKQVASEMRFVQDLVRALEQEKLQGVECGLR
Sequence of Serine/threonine-protein kinase PLK1 (Homo sapiens) (P53350 whole entry): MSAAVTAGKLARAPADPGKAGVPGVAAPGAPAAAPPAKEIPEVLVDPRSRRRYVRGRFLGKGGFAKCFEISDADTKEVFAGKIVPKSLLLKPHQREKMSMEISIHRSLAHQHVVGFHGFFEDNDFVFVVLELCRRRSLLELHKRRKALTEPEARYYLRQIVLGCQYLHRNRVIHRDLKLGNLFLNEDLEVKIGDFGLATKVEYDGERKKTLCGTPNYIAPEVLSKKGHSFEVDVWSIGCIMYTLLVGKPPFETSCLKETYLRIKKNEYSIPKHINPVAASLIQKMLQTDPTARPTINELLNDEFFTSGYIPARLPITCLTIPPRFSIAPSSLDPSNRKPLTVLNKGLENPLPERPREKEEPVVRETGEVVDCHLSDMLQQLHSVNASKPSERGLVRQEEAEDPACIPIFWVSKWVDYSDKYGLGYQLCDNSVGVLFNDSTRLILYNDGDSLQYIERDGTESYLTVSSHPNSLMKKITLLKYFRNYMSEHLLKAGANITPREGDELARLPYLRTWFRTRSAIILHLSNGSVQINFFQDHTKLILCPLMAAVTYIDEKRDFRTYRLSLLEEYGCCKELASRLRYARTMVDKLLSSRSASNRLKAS
Sequence of Dual specificity protein kinase CLK2 (Homo sapiens) (P49760 whole entry, looked up): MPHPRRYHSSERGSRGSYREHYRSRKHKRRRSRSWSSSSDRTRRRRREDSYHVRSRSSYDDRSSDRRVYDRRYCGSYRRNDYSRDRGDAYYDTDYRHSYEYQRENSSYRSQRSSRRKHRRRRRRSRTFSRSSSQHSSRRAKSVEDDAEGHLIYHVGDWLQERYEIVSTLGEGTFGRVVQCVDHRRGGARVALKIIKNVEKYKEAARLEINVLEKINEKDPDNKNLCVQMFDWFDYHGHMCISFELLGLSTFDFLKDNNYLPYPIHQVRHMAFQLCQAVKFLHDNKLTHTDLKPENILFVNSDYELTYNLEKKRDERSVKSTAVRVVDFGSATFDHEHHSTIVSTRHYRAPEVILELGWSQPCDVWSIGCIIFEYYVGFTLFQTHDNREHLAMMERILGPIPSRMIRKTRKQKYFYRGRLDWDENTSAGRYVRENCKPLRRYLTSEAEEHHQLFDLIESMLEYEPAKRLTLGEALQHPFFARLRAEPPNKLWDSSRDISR
Sequence of Dual specificity protein kinase CLK1 (Homo sapiens) (P49759 whole entry, looked up): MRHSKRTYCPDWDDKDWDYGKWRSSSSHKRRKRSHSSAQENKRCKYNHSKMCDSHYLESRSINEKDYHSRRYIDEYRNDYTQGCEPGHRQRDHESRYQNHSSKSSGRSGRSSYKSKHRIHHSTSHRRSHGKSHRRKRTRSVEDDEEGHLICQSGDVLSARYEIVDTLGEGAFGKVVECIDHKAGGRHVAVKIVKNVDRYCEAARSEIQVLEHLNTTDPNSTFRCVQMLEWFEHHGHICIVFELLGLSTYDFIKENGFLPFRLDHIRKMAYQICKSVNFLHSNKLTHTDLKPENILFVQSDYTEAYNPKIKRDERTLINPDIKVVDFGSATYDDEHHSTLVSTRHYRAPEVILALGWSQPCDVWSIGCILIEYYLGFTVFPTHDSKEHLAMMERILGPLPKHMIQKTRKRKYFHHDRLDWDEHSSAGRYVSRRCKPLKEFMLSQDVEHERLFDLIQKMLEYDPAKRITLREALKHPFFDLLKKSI
Sequence of 5'-AMP-activated protein kinase catalytic subunit alpha-2 (Homo sapiens) (P54646 whole entry, looked up): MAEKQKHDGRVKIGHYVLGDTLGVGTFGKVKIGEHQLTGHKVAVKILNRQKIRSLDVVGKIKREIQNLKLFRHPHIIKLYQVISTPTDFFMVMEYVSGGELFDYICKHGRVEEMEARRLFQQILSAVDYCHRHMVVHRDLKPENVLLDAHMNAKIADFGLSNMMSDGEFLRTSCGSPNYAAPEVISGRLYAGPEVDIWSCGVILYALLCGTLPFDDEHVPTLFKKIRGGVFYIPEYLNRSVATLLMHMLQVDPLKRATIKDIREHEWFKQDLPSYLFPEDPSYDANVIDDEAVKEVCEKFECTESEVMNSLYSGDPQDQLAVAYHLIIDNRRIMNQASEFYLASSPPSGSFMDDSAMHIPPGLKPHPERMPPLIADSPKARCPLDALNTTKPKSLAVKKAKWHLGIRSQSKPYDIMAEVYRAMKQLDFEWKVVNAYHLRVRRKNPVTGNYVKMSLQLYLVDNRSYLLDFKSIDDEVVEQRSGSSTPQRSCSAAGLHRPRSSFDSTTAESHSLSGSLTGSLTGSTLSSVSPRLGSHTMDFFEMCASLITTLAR

## O=C1Cc2c([nH]c3ccc([N+](=O)[O-])cc23)-c2ccccc2N1
[1]
  ΔTm: 0.7 °C
[2]
  ΔTm: 0.3 °C
[3]
  ΔTm: 0.8 °C
[4]
  ΔTm: 1.4 °C
[5]
  ΔTm: 0.4 °C
[6]
  ΔTm: 7.8 °C
[7]
  ΔTm: 2.2 °C
[8]
  ΔTm: 0.7 °C
[9]
  ΔTm: 1.6 °C
[10]
  ΔTm: 1.9 °C
[11]
  ΔTm: 1 °C
[12]
  ΔTm: 1.1 °C
[13]
  ΔTm: 0.5 °C
[14]
  ΔTm: 1.6 °C
[15]
  ΔTm: 0.2 °C
[16]
  ΔTm: 1 °C
[17]
  ΔTm: 1.3 °C
[18]
  ΔTm: 0.2 °C

## O=C1Nc2ccccc2/C1=C1/Nc2ccccc2/C1=N\O
[1]
  ΔTm: 6.6 °C
[2]
  ΔTm: 2.1 °C
[3]
  ΔTm: 5.5 °C
[4]
  ΔTm: 5.9 °C
[5]
  ΔTm: 6.1 °C
[6]
  ΔTm: 4.9 °C
[7]
  ΔTm: 7.7 °C
[8]
  ΔTm: 7.8 °C
[9]
  ΔTm: 2.7 °C
[10]
  ΔTm: 2.8 °C
[11]
  ΔTm: 13.1 °C
[12]
  ΔTm: 0.8 °C
[13]
  ΔTm: 1.6 °C
[14]
  ΔTm: 4 °C
[15]
  ΔTm: 4.1 °C
[16]
  ΔTm: 11.7 °C
[17]
  ΔTm: 7 °C
[18]
  ΔTm: 1.7 °C

## CC(C)n1cnc2c(NCc3ccccc3)nc(NCCCO)nc21
[1]
  ΔTm: -0.7 °C
[2]
  ΔTm: 0.1 °C
[3]
  ΔTm: 0.4 °C
[4]
  ΔTm: 0.2 °C
[5]
  ΔTm: -0.1 °C
[6]
  ΔTm: 0.5 °C
[7]
  ΔTm: 2.6 °C
[8]
  ΔTm: 2.2 °C
[9]
  ΔTm: 0.7 °C
[10]
  ΔTm: 0 °C
[11]
  ΔTm: 0.4 °C
[12]
  ΔTm: 0.4 °C
[13]
  ΔTm: 1.8 °C
[14]
  ΔTm: 0.3 °C
[15]
  ΔTm: 2.5 °C
[16]
  ΔTm: 0.6 °C
[17]
  ΔTm: 0.1 °C
[18]
  ΔTm: -0.1 °C

## COc1cc2ncnc(Nc3cccc(Br)c3)c2cc1OC
[1]
  ΔTm: -0.5 °C
[2]
  ΔTm: 0 °C
[3]
  ΔTm: 0.1 °C
[4]
  ΔTm: 0.2 °C
[5]
  ΔTm: 0.1 °C
[6]
  ΔTm: 2 °C
[7]
  ΔTm: 1.7 °C
[8]
  ΔTm: 0.7 °C
[9]
  ΔTm: 1.8 °C
[10]
  ΔTm: 0.3 °C
[11]
  ΔTm: 2.7 °C
[12]
  ΔTm: 0.6 °C
[13]
  ΔTm: -0.3 °C
[14]
  ΔTm: 0.4 °C
[15]
  ΔTm: 0.1 °C
[16]
  ΔTm: 0.4 °C
[17]
  ΔTm: 0.6 °C
[18]
  ΔTm: 0.7 °C

## Ic1cccc(CSc2nnc(-c3ccncc3)o2)c1
[1]
  ΔTm: -0.7 °C
[2]
  ΔTm: 0.1 °C
[3]
  ΔTm: -0.5 °C
[4]
  ΔTm: -0.2 °C
[5]
  ΔTm: -0.7 °C
[6]
  ΔTm: -0.9 °C
[7]
  ΔTm: 1.7 °C
[8]
  ΔTm: 1.7 °C
[9]
  ΔTm: 0.2 °C
[10]
  ΔTm: -0.1 °C
[11]
  ΔTm: -0.3 °C
[12]
  ΔTm: 0.5 °C
[13]
  ΔTm: -0.9 °C
[14]
  ΔTm: 0.3 °C
[15]
  ΔTm: 0 °C
[16]
  ΔTm: 0.2 °C
[17]
  ΔTm: -0.6 °C
[18]
  ΔTm: -0.2 °C

## CC(C)N(CCO)c1nc(Nc2cccc(Cl)c2)c2ncn(C(C)C)c2n1
[1]
  ΔTm: 0.2 °C
[2]
  ΔTm: 0.4 °C
[3]
  ΔTm: 2.2 °C
[4]
  ΔTm: 0.2 °C
[5]
  ΔTm: 0.3 °C
[6]
  ΔTm: 0.6 °C
[7]
  ΔTm: 5.9 °C
[8]
  ΔTm: 5.8 °C
[9]
  ΔTm: 0.4 °C
[10]
  ΔTm: 0.2 °C
[11]
  ΔTm: 2.2 °C
[12]
  ΔTm: 1.7 °C
[13]
  ΔTm: 3.3 °C
[14]
  ΔTm: 1.6 °C
[15]
  ΔTm: 0.6 °C
[16]
  ΔTm: 3.1 °C
[17]
  ΔTm: 0.7 °C
[18]
  ΔTm: 0.5 °C
